Earlier results on 1 molecule are cited in US10463731B2, “Adjuvant combinations comprising alpha-galactosylceramide or iGb3, CD40 agonists and antigen” (IMMURX, INC., priority 2007, dated 2019).

The data set deals with tumors. The following applies: monotherapy, mice.

With `CCCCCCCCCCCCCCCCCCCCCCCCCC(=O)N[C@@H](CO[C@H]1O[C@H](CO)[C@H](O)[C@H](O)[C@H]1O)[C@H](O)[C@H](O)CCCCCCCCCCCCCC` [α-Gal-Cer, alpha-galactosylceramide], the “enhancement of immunity to tumors” value is given as “limited success”.
